The source made the active and inactive calls. The rule behind the calls is not given here.
target: T1, Poly-beta-1,6-N-acetyl-D-glucosamine N-deacetylase (Escherichia coli (strain K12), UniProt P75906); test: (§1) Inhibition of Escherichia coli PgaB expressed in Escherichia coli BL21 (DE3) cells transformed with pET28 plasmid coding for PgaB42-655 using acetoxymethyl-4-methylumbelliferone as substrate measured at 2 min intervals over 10 mins in presence of CoCl2 by fluorescence assay
T1 sequence (P75906 whole entry): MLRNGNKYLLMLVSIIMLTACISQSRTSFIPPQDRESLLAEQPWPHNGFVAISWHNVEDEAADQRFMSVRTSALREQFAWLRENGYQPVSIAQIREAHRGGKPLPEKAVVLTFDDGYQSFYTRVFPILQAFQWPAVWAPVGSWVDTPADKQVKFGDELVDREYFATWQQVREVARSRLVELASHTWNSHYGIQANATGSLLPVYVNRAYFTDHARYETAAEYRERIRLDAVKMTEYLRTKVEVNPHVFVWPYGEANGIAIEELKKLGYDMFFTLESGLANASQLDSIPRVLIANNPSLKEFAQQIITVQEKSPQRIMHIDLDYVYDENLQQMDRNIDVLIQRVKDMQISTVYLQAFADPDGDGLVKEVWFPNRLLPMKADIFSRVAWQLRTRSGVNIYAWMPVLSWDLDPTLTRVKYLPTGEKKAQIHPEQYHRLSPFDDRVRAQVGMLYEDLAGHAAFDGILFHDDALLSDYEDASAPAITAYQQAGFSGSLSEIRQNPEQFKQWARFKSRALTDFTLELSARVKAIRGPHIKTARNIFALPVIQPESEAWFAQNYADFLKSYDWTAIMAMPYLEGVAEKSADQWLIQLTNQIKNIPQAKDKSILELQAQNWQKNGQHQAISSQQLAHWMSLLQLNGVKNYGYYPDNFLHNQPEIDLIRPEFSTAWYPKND

SMILES | IC50 [mM]
CC(=S)N[C@H]1[C@H](OCc2ccccc2)O[C@H](CO)[C@@H](O)[C@@H]1O | > 10
COP(=O)(O)C[C@H]1[C@H](OCc2ccccc2)O[C@H](CO)[C@@H](O)[C@@H]1O | > 10
NS(=O)(=O)C[C@H]1[C@H](OCc2ccccc2)O[C@H](CO)[C@@H](O)[C@@H]1O | > 10
COP(=O)(O)C[C@H]1[C@H](OCc2ccccc2)O[C@H](CO)[C@@H](OCc2ccccc2)[C@@H]1O | > 5
CC(=O)N[C@H]1[C@H](OCc2ccccc2)O[C@H](CO)[C@@H](O)[C@@H]1N=[N+]=[N-] | > 5
CC(=O)N[C@H]1[C@H](OCc2ccccc2)O[C@H](CO)[C@@H](O)[C@@H]1O | > 20
COP(=O)(O)C[C@H]1[C@H](OCc2ccccc2)O[C@H](COCc2ccccc2)[C@@H](O)[C@@H]1O | > 5
CC(=O)N[C@H]1[C@H](OCc2ccccc2)O[C@H](CO)[C@@H](O)[C@@H]1N | > 10
NS(=O)(=O)C[C@H]1[C@H](OCc2ccccc2)O[C@H](CO)[C@@H](OCc2ccccc2)[C@@H]1O | > 5

target: T2, Peptidoglycan-N-acetylglucosamine deacetylase (Streptococcus pneumoniae (strain ATCC BAA-255 / R6), UniProt Q8DP63); test: (§2) Inhibition of Streptococcus pneumoniae Pgda expressed in Escherichia coli BL21 (DE3) cells transformed with pET28bSpPgdA232-431 plasmid using acetoxymethyl-4-methylumbelliferone as substrate measured at 5 min intervals over 60 mins in presence of CoCl2 by fluorescence assay
T2 sequence (Q8DP63 whole entry): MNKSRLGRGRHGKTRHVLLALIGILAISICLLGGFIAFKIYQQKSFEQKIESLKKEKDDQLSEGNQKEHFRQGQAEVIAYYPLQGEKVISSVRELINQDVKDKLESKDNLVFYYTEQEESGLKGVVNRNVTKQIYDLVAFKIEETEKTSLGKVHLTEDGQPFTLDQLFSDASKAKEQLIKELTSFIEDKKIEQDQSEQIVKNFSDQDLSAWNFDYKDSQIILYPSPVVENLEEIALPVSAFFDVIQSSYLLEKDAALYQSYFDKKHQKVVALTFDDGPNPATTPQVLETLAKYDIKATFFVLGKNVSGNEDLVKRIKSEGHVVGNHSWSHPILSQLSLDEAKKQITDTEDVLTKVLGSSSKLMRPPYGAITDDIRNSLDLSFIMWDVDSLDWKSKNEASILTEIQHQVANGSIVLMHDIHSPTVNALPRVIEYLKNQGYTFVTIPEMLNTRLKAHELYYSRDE

SMILES | IC50 [mM]
CC(=S)N[C@H]1[C@H](OCc2ccccc2)O[C@H](CO)[C@@H](O)[C@@H]1O | > 10
COP(=O)(O)C[C@H]1[C@H](OCc2ccccc2)O[C@H](CO)[C@@H](O)[C@@H]1O | 4.9
NS(=O)(=O)C[C@H]1[C@H](OCc2ccccc2)O[C@H](CO)[C@@H](O)[C@@H]1O | > 10
COP(=O)(O)C[C@H]1[C@H](OCc2ccccc2)O[C@H](CO)[C@@H](OCc2ccccc2)[C@@H]1O | > 5
CC(=O)N[C@H]1[C@H](OCc2ccccc2)O[C@H](CO)[C@@H](O)[C@@H]1N=[N+]=[N-] | > 5
CC(=O)N[C@H]1[C@H](OCc2ccccc2)O[C@H](CO)[C@@H](O)[C@@H]1O | 11
COP(=O)(O)C[C@H]1[C@H](OCc2ccccc2)O[C@H](COCc2ccccc2)[C@@H](O)[C@@H]1O | > 5
CC(=O)N[C@H]1[C@H](OCc2ccccc2)O[C@H](CO)[C@@H](O)[C@@H]1N | > 10
NS(=O)(=O)C[C@H]1[C@H](OCc2ccccc2)O[C@H](CO)[C@@H](OCc2ccccc2)[C@@H]1O | > 5

target: T3, Peptidoglycan-N-acetylglucosamine deacetylase (Streptococcus pneumoniae (strain ATCC BAA-255 / R6)) (UniProt Q8DP63); test: Inhibition of Streptococcus pneumoniae Pgda expressed in Escherichia coli BL21 (DE3) cells transformed with pET28bSpPgdA232-431 plasmid at 5 mM using acetoxymethyl-4-methylumbelliferone as substrate measured at 5 min intervals over 60 mins in presence of CoCl2 by fluorescence assay
T3 sequence (whole entry): T2 sequence (Q8DP63 whole entry)

SMILES | inhibition
COP(=O)(O)C[C@H]1[C@H](OCc2ccccc2)O[C@H](CO)[C@@H](OCc2ccccc2)[C@@H]1O | inactive
COP(=O)(O)C[C@H]1[C@H](OCc2ccccc2)O[C@H](COCc2ccccc2)[C@@H](O)[C@@H]1O | inactive

target: T4, Poly-beta-1,6-N-acetyl-D-glucosamine N-deacetylase (Escherichia coli (strain K12)) (UniProt P75906); test: Substrate activity at Escherichia coli PgaB at 5 mM in presence of CoCl2 or ZnCl2 by fluorescamine assay deacetylase assay
T4 sequence (whole entry): T1 sequence (P75906 whole entry)

SMILES | Activity
CC(=S)N[C@H]1[C@H](OCc2ccccc2)O[C@H](CO)[C@@H](O)[C@@H]1O | inactive
CC(=O)N[C@H]1[C@H](OCc2ccccc2)O[C@H](CO)[C@@H](O)[C@@H]1S | inactive
CC(=O)N[C@H]1[C@H](OCc2ccccc2)O[C@H](CO)[C@@H](O)[C@@H]1O | inactive
CC(=O)N[C@H]1[C@H](OCc2ccccc2)O[C@H](CO)[C@@H](O)[C@@H]1N | inactive

target: T3, Peptidoglycan-N-acetylglucosamine deacetylase (Streptococcus pneumoniae (strain ATCC BAA-255 / R6)); test: Substrate activity at Streptococcus pneumoniae Pgda at 5 mM in presence of CoCl2 or ZnCl2 by fluorescamine assay deacetylase assay

SMILES | Activity
CC(=S)N[C@H]1[C@H](OCc2ccccc2)O[C@H](CO)[C@@H](O)[C@@H]1O | inactive
CC(=O)N[C@H]1[C@H](OCc2ccccc2)O[C@H](CO)[C@@H](O)[C@@H]1S | inactive
CC(=O)N[C@H]1[C@H](OCc2ccccc2)O[C@H](CO)[C@@H](O)[C@@H]1O | inactive
CC(=O)N[C@H]1[C@H](OCc2ccccc2)O[C@H](CO)[C@@H](O)[C@@H]1N | inactive

target: T3, Peptidoglycan-N-acetylglucosamine deacetylase (Streptococcus pneumoniae (strain ATCC BAA-255 / R6)); test: Inhibition of Streptococcus pneumoniae Pgda expressed in Escherichia coli BL21 (DE3) cells transformed with pET28bSpPgdA232-431 plasmid at 200 to 1200 uM using acetoxymethyl-4-methylumbelliferone as substrate measured at 5 min intervals over 60 mins in presence of 3 uM ZnCl2 by fluorescence assay

SMILES | inhibition
CC(=S)N[C@H]1[C@H](OCc2ccccc2)O[C@H](CO)[C@@H](O)[C@@H]1S | inactive

target: T3, Peptidoglycan-N-acetylglucosamine deacetylase (Streptococcus pneumoniae (strain ATCC BAA-255 / R6)); test: Inhibition of Streptococcus pneumoniae Pgda expressed in Escherichia coli BL21 (DE3) cells transformed with pET28bSpPgdA232-431 plasmid at 200 to 1200 uM using acetoxymethyl-4-methylumbelliferone as substrate measured at 5 min intervals over 60 mins in presence of 6 uM ZnCl2 by fluorescence assay

SMILES | inhibition
CC(=S)N[C@H]1[C@H](OCc2ccccc2)O[C@H](CO)[C@@H](O)[C@@H]1S | Active

target: T3, Peptidoglycan-N-acetylglucosamine deacetylase (Streptococcus pneumoniae (strain ATCC BAA-255 / R6)); test: Inhibition of Streptococcus pneumoniae Pgda expressed in Escherichia coli BL21 (DE3) cells transformed with pET28bSpPgdA232-431 plasmid at 200 to 1200 uM using acetoxymethyl-4-methylumbelliferone as substrate measured at 5 min intervals over 60 mins in presence of 200 uM ZnCl2 by fluorescence assay

SMILES | inhibition
CC(=S)N[C@H]1[C@H](OCc2ccccc2)O[C@H](CO)[C@@H](O)[C@@H]1S | Active

target: T2, Peptidoglycan-N-acetylglucosamine deacetylase; test: Partial mixed inhibition of Streptococcus pneumoniae apo-Pgda using N,N',N\"-triacetyl chitotriose as substrate in presence of ZnCl2 by fluorescamine assay deacetylase assay based Dixon plot analysis

SMILES | Ki [mM]
CC(=S)N[C@H]1[C@H](OCc2ccccc2)O[C@H](CO)[C@@H](O)[C@@H]1S | 0.0029

target: T4, Poly-beta-1,6-N-acetyl-D-glucosamine N-deacetylase (Escherichia coli (strain K12)); test: Inhibition of Escherichia coli PgaB expressed in Escherichia coli BL21 (DE3) cells transformed with pET28 plasmid coding for PgaB42-655 at 10 mM using acetoxymethyl-4-methylumbelliferone as substrate measured at 2 min intervals over 10 mins in presence of CoCl2 by fluorescence assay

SMILES | inhibition
O[C@H](CS)[C@H](O)CS | inactive

target: T1, Poly-beta-1,6-N-acetyl-D-glucosamine N-deacetylase; test: as §1, with “using compound pre-incubated with 1Eq DTT and using” for “using”

SMILES | IC50 [mM]
CC(=S)N[C@H]1[C@H](OCc2ccccc2)O[C@H](CO)[C@@H](O)[C@@H]1S | > 1
CC(=O)N[C@H]1[C@H](OCc2ccccc2)O[C@H](CO)[C@@H](O)[C@@H]1S | > 8
CS(=O)(=O)N[C@H]1[C@H](OCc2ccccc2)O[C@H](CO)[C@@H](O)[C@@H]1S | > 1

target: T1, Poly-beta-1,6-N-acetyl-D-glucosamine N-deacetylase; test: as §1, with “using compound pre-incubated with 1Eq DTT and using” for “using”, “ZnCl2” for “CoCl2”

SMILES | IC50 [mM]
CC(=S)N[C@H]1[C@H](OCc2ccccc2)O[C@H](CO)[C@@H](O)[C@@H]1S | 0.14
CC(=O)N[C@H]1[C@H](OCc2ccccc2)O[C@H](CO)[C@@H](O)[C@@H]1S | 1.1
CS(=O)(=O)N[C@H]1[C@H](OCc2ccccc2)O[C@H](CO)[C@@H](O)[C@@H]1S | > 1

target: T2, Peptidoglycan-N-acetylglucosamine deacetylase; test: as §2, with “plasmid using compound pre-incubated with 1Eq DTT and” for “plasmid”

SMILES | IC50 [mM]
CC(=S)N[C@H]1[C@H](OCc2ccccc2)O[C@H](CO)[C@@H](O)[C@@H]1S | > 1
CC(=O)N[C@H]1[C@H](OCc2ccccc2)O[C@H](CO)[C@@H](O)[C@@H]1S | > 8
CS(=O)(=O)N[C@H]1[C@H](OCc2ccccc2)O[C@H](CO)[C@@H](O)[C@@H]1S | > 1

target: T2, Peptidoglycan-N-acetylglucosamine deacetylase; test: as §2, with “using compound pre-incubated with 1Eq DTT and using” for “using”, “ZnCl2” for “CoCl2”

SMILES | IC50 [mM]
CC(=S)N[C@H]1[C@H](OCc2ccccc2)O[C@H](CO)[C@@H](O)[C@@H]1S | 0.011
CC(=O)N[C@H]1[C@H](OCc2ccccc2)O[C@H](CO)[C@@H](O)[C@@H]1S | 5
CS(=O)(=O)N[C@H]1[C@H](OCc2ccccc2)O[C@H](CO)[C@@H](O)[C@@H]1S | > 1

target: T3, Peptidoglycan-N-acetylglucosamine deacetylase (Streptococcus pneumoniae (strain ATCC BAA-255 / R6)); test: Inhibition of Streptococcus pneumoniae Pgda expressed in Escherichia coli BL21 (DE3) cells transformed with pET28bSpPgdA232-431 plasmid at 10 mM using acetoxymethyl-4-methylumbelliferone as substrate measured at 5 min intervals over 60 mins in presence of CoCl2 by fluorescence assay

SMILES | inhibition
O[C@H](CS)[C@H](O)CS | inactive

target: T4, Poly-beta-1,6-N-acetyl-D-glucosamine N-deacetylase (Escherichia coli (strain K12)); test: Substrate activity at Escherichia coli PgaB at 1 mM in presence of CoCl2 or ZnCl2 by fluorescamine assay deacetylase assay

SMILES | Activity
CC(=S)N[C@H]1[C@H](OCc2ccccc2)O[C@H](CO)[C@@H](O)[C@@H]1S | inactive
CC(=O)N[C@H]1[C@H](OCc2ccccc2)O[C@H](CO)[C@@H](O)[C@@H]1N=[N+]=[N-] | inactive
CS(=O)(=O)N[C@H]1[C@H](OCc2ccccc2)O[C@H](CO)[C@@H](O)[C@@H]1S | inactive

target: T3, Peptidoglycan-N-acetylglucosamine deacetylase (Streptococcus pneumoniae (strain ATCC BAA-255 / R6)); test: Substrate activity at Streptococcus pneumoniae Pgda at 1 mM in presence of CoCl2 or ZnCl2 by fluorescamine assay deacetylase assay

SMILES | Activity
CC(=S)N[C@H]1[C@H](OCc2ccccc2)O[C@H](CO)[C@@H](O)[C@@H]1S | inactive
CC(=O)N[C@H]1[C@H](OCc2ccccc2)O[C@H](CO)[C@@H](O)[C@@H]1N=[N+]=[N-] | inactive
CS(=O)(=O)N[C@H]1[C@H](OCc2ccccc2)O[C@H](CO)[C@@H](O)[C@@H]1S | inactive
